Reference: the supplement of paper PMC10307832

Tests used:
Experiment in all cases: relative viability (nuclei count vs DMSO), 5 days (fraction); higher = more cells survive
Vemurafenib + Crizotinib = compound: CCCS(=O)(=O)Nc1ccc(F)c(C(=O)c2c[nH]c3ncc(-c4ccc(Cl)cc4)cc23)c1F [Vemurafenib] + C[C@@H](Oc1cc(-c2cnn(C3CCNCC3)c2)cnc1N)c1c(Cl)ccc(F)c1Cl [Crizotinib] (partner 1 µM)
Method in brief: (§1)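 The day after seeding in 1536-well plates, lung cancer cell lines were treated by pin tool with a single drug, or with a fixed anchor-drug dose together with five library-drug doses (not always all listed) in √10 steps. After 5 days, a combined fix-and-stain solution (final 0.05% Triton X-100, 1% formaldehyde, 1 ug/ml Hoechst) was added. Nuclei counted on 4× images gave relative viability as treated counts over vehicle counts, reported as the median of duplicate plates.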

Vemurafenib + Trametinib = compound: CCCS(=O)(=O)Nc1ccc(F)c(C(=O)c2c[nH]c3ncc(-c4ccc(Cl)cc4)cc23)c1F [Vemurafenib] + CC(=O)Nc1cccc(-n2c(=O)n(C3CC3)c(=O)c3c(Nc4ccc(I)cc4F)n(C)c(=O)c(C)c32)c1 [Trametinib] (partner 0.02 µM)
Method in brief: as §1

OSI-027 + Phenformin = compound: COc1cccc2cc(-c3nc([C@H]4CC[C@H](C(=O)O)CC4)n4ncnc(N)c34)[nH]c12 [OSI-027] + N=C(N)NC(=N)NCCc1ccccc1 [Phenformin] (partner 250 µM)
Method in brief: as §1

Alpelisib + Trametinib = compound: Cc1nc(NC(=O)N2CCC[C@H]2C(N)=O)sc1-c1ccnc(C(C)(C)C(F)(F)F)c1 [Alpelisib] + CC(=O)Nc1cccc(-n2c(=O)n(C3CC3)c(=O)c3c(Nc4ccc(I)cc4F)n(C)c(=O)c(C)c32)c1 [Trametinib] (partner 0.02 µM)
Method in brief: as §1

| Cell Line | relative viability (Vemurafenib + Crizotinib; first compound 0.03162 µM) | relative viability (Vemurafenib + Crizotinib; first compound 0.1 µM) | relative viability (Vemurafenib + Crizotinib; first compound 0.3162 µM) | relative viability (Vemurafenib + Crizotinib; first compound 1 µM) | relative viability (Vemurafenib + Trametinib; first compound 0.03162 µM) | relative viability (Vemurafenib + Trametinib; first compound 0.1 µM) | relative viability (Vemurafenib + Trametinib; first compound 0.3162 µM) | relative viability (Vemurafenib + Trametinib; first compound 1 µM) | relative viability (OSI-027 + Phenformin; first compound 0.01 µM) | relative viability (OSI-027 + Phenformin; first compound 0.03162 µM) | relative viability (OSI-027 + Phenformin; first compound 0.1 µM) | relative viability (OSI-027 + Phenformin; first compound 0.3162 µM) | relative viability (OSI-027 + Phenformin; first compound 1 µM) | relative viability (Alpelisib + Trametinib; first compound 0.04 µM) | relative viability (Alpelisib + Trametinib; first compound 0.1265 µM) | relative viability (Alpelisib + Trametinib; first compound 0.4 µM) | relative viability (Alpelisib + Trametinib; first compound 1.265 µM) | relative viability (Alpelisib + Trametinib; first compound 4 µM) |
| --- | --- | --- | --- | --- | --- | --- | --- | --- | --- | --- | --- | --- | --- | --- | --- | --- | --- | --- |
| IA-LM | 0.694 | 0.916 | 1.1 | 0.422 |  |  |  |  |  |  |  |  |  |  |  |  |  |  |
| NCI-H1650 | 0.922 |  | 1.08 | 1.01 | 0.595 | 0.406 | 0.633 | 0.577 | 0.37 | 0.366 | 0.444 | 0.378 | 0.253 | 0.688 | 0.487 | 0.638 | 0.505 | 0.544 |
| NCI-H322M | 0.934 |  | 1.23 | 0.716 | 0.462 |  | 0.723 | 0.547 | 0.737 | 0.748 | 0.674 | 0.531 | 0.498 | 0.516 | 0.497 | 0.49 | 0.367 | 0.411 |
| SW 1573 | 0.628 | 0.941 | 1.01 | 0.722 | 0.556 | 0.612 | 0.679 | 0.49 | 0.406 | 0.286 | 0.343 | 0.312 | 0.191 | 0.562 | 0.586 | 0.553 | 0.363 | 0.388 |
| HCC-827 | 0.825 |  | 0.924 | 0.863 | 0.52 |  | 0.73 | 0.585 | 0.358 | 0.423 | 0.408 | 0.4 | 0.328 | 0.547 | 0.504 | 0.492 | 0.401 | 0.33 |
| LU99A | 0.531 | 0.489 | 0.516 | 0.526 | 0.521 | 0.563 |  | 0.664 | 0.777 | 0.844 | 0.869 | 0.593 | 0.292 | 0.573 | 0.558 | 0.599 | 0.425 | 0.386 |
| LK-2 | 0.193 | 0.202 | 0.208 | 0.245 | 0.889 | 0.693 | 1.12 | 0.607 | 0.437 | 0.344 | 0.328 | 0.155 | 0.275 | 0.633 | 0.829 | 0.738 | 0.384 | 0.365 |
| EMC-BAC-2 | 0.703 | 0.729 | 0.678 | 0.681 | 0.806 | 0.907 |  | 1.08 | 0.513 | 0.543 | 0.466 | 0.385 | 0.263 | 0.818 |  | 0.892 | 0.529 | 0.599 |
| NCI-H2342 |  |  |  |  | 0.921 | 0.747 | 0.978 | 0.769 | 0.524 | 0.533 | 0.564 | 0.481 | 0.445 | 0.754 | 0.854 | 0.671 | 0.604 | 0.67 |
| NCI-H460 | 0.808 | 0.809 | 0.692 | 0.942 | 0.137 | 0.131 | 0.138 | 0.218 | 0.656 | 0.648 | 0.567 | 0.542 | 0.224 | 0.093 | 0.161 | 0.155 | 0.0725 | 0.0881 |
| NCI-H441 | 0.705 | 0.684 | 0.743 | 0.616 | 0.434 | 0.431 | 0.611 | 0.472 | 0.895 | 0.879 | 0.841 | 0.55 | 0.474 | 0.472 | 0.383 | 0.388 | 0.247 | 0.263 |
| NCI-H661 | 0.819 | 1.07 |  | 0.949 | 0.522 | 0.475 | 0.517 | 0.606 | 0.263 | 0.286 | 0.254 | 0.258 | 0.245 | 0.618 | 0.593 | 0.645 | 0.52 | 0.462 |
| NCI-H727 | 0.793 | 0.623 | 1.2 | 0.954 | 0.407 | 0.374 | 0.487 | 0.399 | 0.569 | 0.546 | 0.557 | 0.466 | 0.407 | 0.349 | 0.387 | 0.383 | 0.301 | 0.308 |
| NCI-H1651 | 0.875 | 0.869 | 0.806 | 0.795 | 0.805 | 0.741 | 0.773 | 0.827 | 0.364 | 0.285 | 0.299 | 0.256 | 0.25 | 0.752 | 0.828 | 0.807 | 0.759 | 0.561 |
| NCI-H1355 | 1 | 0.963 | 0.992 | 1.05 | 0.454 | 0.35 | 0.464 | 0.523 | 0.409 | 0.45 | 0.46 | 0.407 | 0.304 | 0.397 | 0.421 | 0.386 | 0.356 | 0.292 |
| NCI-H1793 |  |  |  |  | 0.397 | 0.387 | 0.467 | 0.591 | 0.365 | 0.367 | 0.306 | 0.297 | 0.184 | 0.424 | 0.289 | 0.536 | 0.406 | 0.39 |
| NCI-H1666 | 1.02 |  | 1.24 | 1.05 | 0.928 | 0.786 | 1.04 | 0.86 | 0.548 | 0.603 | 0.556 | 0.639 | 0.578 | 0.799 | 0.841 | 0.903 | 0.784 | 0.71 |
| NCI-H838 | 0.761 | 0.783 |  | 0.928 | 0.527 | 0.528 | 0.257 | 0.548 | 0.588 | 0.62 | 0.479 | 0.339 | 0.28 | 0.419 | 0.483 | 0.515 | 0.405 | 0.421 |
| NCI-H1975 | 0.955 | 0.926 | 0.837 | 1.02 | 0.328 | 0.327 | 0.259 | 0.281 | 0.435 | 0.412 | 0.379 | 0.363 | 0.298 | 0.364 | 0.315 | 0.317 | 0.258 | 0.177 |
